Assay results: paper PMC7314547, “Echinoderms provide missing link in the evolution of PrRP/sNPF-type neuropeptide signalling” (eLife, 2020)
Entries after “also recorded” stand apart in the source; their conditions may differ. Where no end group is shown, it is not given here.

Experiments:
[1] = system: NPR-11; details: ref Chalasani et al., 2010; cited from earlier work
Description: The nematode C. elegans is a powerful model system for functional characterisation of neuropeptide signalling systems ([Frooninckx et al., 2012]). However, NPY/NPF-type signalling has thus far only been partially characterised in this species. […] However, this peptide shares little sequence similarity with NPY/NPF-typ ...

[2] = system: A. rubens sNPF/PrRP-type receptor Ar-sNPF/PrRPR; test: Receptor activation: luminescence of CHO-K1 cells expressing Ar-sNPF/PrRPR, Gα16 and apoaequorin-GFP fusion (G5A) (CHO-Ar-sNPF/PrRPR); assay type: cell-based, Asterias rubens; details: for luminescence response / receptor activation (in words): at least three independent experiments in triplicate
Protocol: A cDNA encoding Ar-sNPF/PrRPR was cloned and sequenced (Figure 3—figure supplement 1) and its sequence has been deposited in GenBank under accession number MH807444.1. […] The cloned receptor was then co-expressed with Gα16 in CHO-K1 cells expressing apoaequorin to produce the cell system CHO-Ar-sNPF/PrRPR. Synthetic ArPrRP (p[…]-NH2) was tested as a candidate ligand for Ar-sNPF/PrRPR at concentrations ranging from 10^−14 M to 10^−5 M, comparing with cells incubated in assay media without the addition of the peptide. […] Because ArPrRP contains a potential dibasic cleavage site (see underlined arginine residues in its sequence: p[…]-NH2), we hypothesised that the C-terminal pentapeptide of ArPrRP (LNPRFamide) may also be generated from ArPrRPP in vivo. Therefore, we also tested synthetic LNPRFamide as a candidate ligand for Ar-sNPF/PrRPR. […] Therefore, we conclude that the 22-residue amidated peptide ArPrRP is the natural ligand for Ar-sNPF/PrRPR in A. rubens.
Figure 5. A. rubens PrRP-like peptide ArPrRP acts as a ligand for the A. rubens sNPF/PrRP-type receptor Ar-sNPF/PrRPR. (A) The A. rubens PrRP-like peptide ArPrRP (10^−5 M; red bar) triggers luminescence in CHO-K1 cells expressing the A. rubens PrRP/sNPF-type receptor Ar-sNPF/PrRPR, the promiscuous G-protein Gα16 and the calcium-sensitive luminescent GFP-apoaequorin fusion protein G5A. For comparison, the background luminescence of cells that were not exposed to ArPrRP is shown (basal media; grey bar). Mean values (± S.E.M) were determined from three independent experiments performed in triplicate (B). Graph showing the selectivity of ArPrRP as a ligand for Ar-sNPF/PrRPR. […] Ar-sNPF/PrRPR is not activated by a C-terminal pentapeptide fragment of ArPrRP (LNPRFamide) or by the A. rubens luqin-type peptide ArLQ. Each point represents mean values (± S.E.M) from at least three independent experiments done in triplicate. The raw data for the experiments shown in Figure 5 and in Figure 5—figure supplement 2 can be found in Figure 5—source data 1. Figure 5—source data 1. Data for the graphs shown in Figure 5 and Figure 5—figure supplement 2. Figure 5—figure supplement 1. Predicted topology of Ar-sNPF/PrRPR. Seven predicted transmembrane domains are numbered successively in blue and two predicted N-glycosylation sites are shown with green boxes. This figure was generated using Protter (http://wlab.ethz.ch/protter/start/). [drawing 6] Figure 5—figure supplement 2. […] Each point represents mean values (± S.E.M.) from at least three independent experiments, with each experiment performed in triplicate. [drawing 7]
To enable the pharmacological characterisation of a candidate receptor for the A. rubens NPY/NPF/PrRP-like peptide, a cDNA encoding this receptor was cloned into the eukaryotic expression vector pcDNA 3.1(+) (Invitrogen; Cat. No. V790-20). To facilitate expression of the cloned receptor, the forward primer included a partial Kozak consensus sequence (ACC) and a sequence corresponding to the first 15 bases of the open reading frame of contig 1120879 (ACCATGCAGATGACAACC) and the reverse primer consisted of a stop codon and a sequence reverse complementary to the 3’ region of the open reading frame of contig 1120879 ([…]). PCR was performed using the forward primer and reverse primers, A. rubens radial nerve cord cDNA and Q5 polymerase (NEB; Cat. No. M0491S). […] Successful ligation and the direction of the insert was determined by restriction enzyme digestion and sequencing (TubeSeq service; Eurofins Genomics). […]

[3] = system: CHO-K1 cells transfected with an empty pcDNA 3.1(+) vector; test: Control: luminescence of CHO-K1 (G5A) cells transfected with empty pcDNA 3.1(+) vector; assay type: cell-based, Cricetulus griseus; details: cells transfected with vector alone; at least three independent experiments in triplicate
Protocol: A cDNA encoding Ar-sNPF/PrRPR was cloned and sequenced (Figure 3—figure supplement 1) and its sequence has been deposited in GenBank under accession number MH807444.1. […] The cloned receptor was then co-expressed with Gα16 in CHO-K1 cells expressing apoaequorin to produce the cell system CHO-Ar-sNPF/PrRPR. Synthetic ArPrRP (p[…]-NH2) was tested as a candidate ligand for Ar-sNPF/PrRPR at concentrations ranging from 10^−14 M to 10^−5 M, comparing with cells incubated in assay media without the addition of the peptide. […] Because ArPrRP contains a potential dibasic cleavage site (see underlined arginine residues in its sequence: p[…]-NH2), we hypothesised that the C-terminal pentapeptide of ArPrRP (LNPRFamide) may also be generated from ArPrRPP in vivo. Therefore, we also tested synthetic LNPRFamide as a candidate ligand for Ar-sNPF/PrRPR. […]
Figure 5. […] (A) The A. rubens PrRP-like peptide ArPrRP (10^−5 M; red bar) triggers luminescence in CHO-K1 cells expressing the A. rubens PrRP/sNPF-type receptor Ar-sNPF/PrRPR, the promiscuous G-protein Gα16 and the calcium-sensitive luminescent GFP-apoaequorin fusion protein G5A. For comparison, the background luminescence of cells that were not exposed to ArPrRP is shown (basal media; grey bar). Mean values (± S.E.M) were determined from three independent experiments performed in triplicate (B). […]

Row | EC50 ([2]; 10^-14 M to 10^-5 M in DMEM/F12, luminescence integrated over 30 s, four-parameter curve, at least three independent transfections in triplicate, read-out: EC50 (half-maximal response concentration)) | Substance | receptor activation (in words) [1] | ligand potency (in words) [2] | luminescence response relative to background (basal media) ([2]; 10^-5 M, mean of three independent experiments in triplicate) | luminescence response / receptor activation (in words) [2] | luminescence response (in words) [3]
1 | – | MDANAFRMSF-NH2 | only showed activation at peptide concentrations of 10 and 30 µM | – | – | – | –
2 | 0.15 nM | pQDRSKAMQAERTGQLRRLNPRF-NH2 [ArPrRP, 22-residue amidated starfish PrRP-type neuropeptide, custom synthesised] | – | potent ligand | approximately five times the background luminescence | induced dose-dependent luminescence; also recorded: causes dose-dependent luminescence | no response; also recorded: does not trigger luminescence
3 | – | LNPRFamide [C-terminal pentapeptide of ArPrRP] | – | – | – | did not induce luminescence responses; also recorded: not activated | –
